Values quoted from earlier work as cited in PMC5263201, “GABAA receptor occupancy by subtype selective GABAAα2,3 modulators: PET studies in humans” (Psychopharmacology, 2016).
Like-named read-outs stand apart in the source and are kept apart here.

Key:
[1] = biological target: BZ binding site, hippocampus synaptosomal membranes; design: method as in Dubinsky et al 2002; settings: (e) rat brain synaptosomal membranes; [3H]Ro15-4513; ref Dubinsky et al 2002; read-out: Affinity in vitro at BZ binding site (Ki), hippocampus; cited from earlier work
GABAA receptor [2] = settings: cited from earlier work; for Receptor occupancy: ref Atack et al 2010a
GABAA receptor α2 = biological target: GABAA receptor α2; design: method as in Sieghart 1995; settings: (d) review; ref Sieghart 1995; read-out: Affinity in vitro at BZ binding site (Ki) α2; cited from earlier work
GABAA receptor α5 = biological target: GABAA receptor α5; design: method as in Sieghart 1995; settings: (d) review; ref Sieghart 1995; read-out: Affinity in vitro at BZ binding site (Ki) α5; cited from earlier work
GABAA receptor α3 = biological target: GABAA receptor α3; design: method as in Sieghart 1995; settings: (d) review; ref Sieghart 1995; read-out: Affinity in vitro at BZ binding site (Ki) α3; cited from earlier work
GABAA α4 and α6 subunits = biological target: GABAA α4 and α6 subunits; design: method as in Sieghart 1995; settings: ref Sieghart 1995; read-out: K i for the α4 and α6 subunits; cited from earlier work
[3] = biological target: GABAA α1, α2, α3, and α5 subunits; design: method as in Sieghart 1995; settings: ref Sieghart 1995; read-out: K i for the GABAA α1, α2, α3, and α5 subunits; cited from earlier work
GABAA α5β3γ2 = tested on: GABAA α5β3γ2; design: method as in Christian et al 2015; settings: 1µM test concentration, GABA EC10, % of 1 µM diazepam, mean ±SE, ref Christian et al 2015; cited from earlier work
GABAA α2β3γ2 = tested on: GABAA α2β3γ2; design: method as in Christian et al 2015; settings: 1µM test concentration, GABA EC10, % of 1 µM diazepam, mean ±SE, ref Christian et al 2015; cited from earlier work
GABAA α1β2γ2 = tested on: GABAA α1β2γ2; design: method as in Christian et al 2015; settings: 1µM test concentration, GABA EC10, % of 1 µM diazepam, mean ±SE, ref Christian et al 2015; cited from earlier work
GABAA α3β3γ2 = tested on: GABAA α3β3γ2; design: method as in Christian et al 2015; settings: 1µM test concentration, GABA EC10, % of 1 µM diazepam, mean ±SE, ref Christian et al 2015; cited from earlier work
[4] = biological target: human recombinant GABAA receptors containing β3, γ2 plus α2; design: method as in Atack et al 2010a; settings: L(tk-) cells, human recombinant β3γ2 plus α2; mean (SEM); ref Atack et al 2010a; read-out: Affinity in vitro at BZ binding site (Ki) α2; cited from earlier work
[5] = tested on: human recombinant GABAA receptors containing β3γ2 plus α2; design: method as in Atack et al 2010; settings: maximum potentiation of GABA EC20 currents relative to chlordiazepoxide; ref Atack et al 2010; cited from earlier work
[6] = tested on: human recombinant GABAA receptors containing β3γ2 plus α1; design: method as in Atack et al 2010; settings: ref Atack et al 2010, cited from earlier work; for Relative efficacy (%CDP) α1: maximum potentiation of GABA EC20 currents relative to chlordiazepoxide
[7] = biological target: human recombinant GABAA receptors containing β3, γ2 plus α3; design: method as in Atack et al 2010a; settings: L(tk-) cells, human recombinant β3γ2 plus α3; mean (SEM); ref Atack et al 2010a; read-out: Affinity in vitro at BZ binding site (Ki) α3; cited from earlier work
[8] = ref Atack et al 2010a; cited from earlier work
[9] = biological target: human recombinant GABAA receptors containing β3, γ2 plus α1; design: method as in Atack et al 2010a; settings: L(tk-) cells, human recombinant β3γ2 plus α1; mean (SEM); ref Atack et al 2010a; read-out: Affinity in vitro at BZ binding site (Ki) α1; cited from earlier work
[10] = biological target: human recombinant GABAA receptors containing β3, γ2 plus α5; design: method as in Atack et al 2010a; settings: L(tk-) cells, human recombinant β3γ2 plus α5; mean (SEM); ref Atack et al 2010a; read-out: Affinity in vitro at BZ binding site (Ki) α5; cited from earlier work
[11] = tested on: human recombinant GABAA receptors containing β3γ2 plus α5; design: method as in Atack et al 2010; settings: maximum potentiation of GABA EC20 currents relative to chlordiazepoxide; ref Atack et al 2010; cited from earlier work
[12] = tested on: human recombinant GABAA receptors containing β3γ2 plus α3; design: method as in Atack et al 2010; settings: maximum potentiation of GABA EC20 currents relative to chlordiazepoxide; ref Atack et al 2010; cited from earlier work
[13] = tested on: human α2β2γ2 GABAA receptors; design: method as in Sanna et al 2002; settings: GABA-evoked Cl- currents, means ±SE, ref Sanna et al 2002; cited from earlier work
GABAA receptor [14] = tested on: GABAA receptor; design: method as in Bottlaender et al 1994; settings: In NHP; corresponds to 4-500 µg/kg; ref Bottlaender et al 1994; cited from earlier work
[15] = tested on: human α5β2γ2 GABAA receptors; design: method as in Sanna et al 2002; settings: GABA-evoked Cl- currents, means ±SE, ref Sanna et al 2002; cited from earlier work
GABAA receptor α1 = biological target: GABAA receptor α1; design: method as in Sieghart 1995; settings: (d) review; ref Sieghart 1995; read-out: Affinity in vitro at BZ binding site (Ki) α1; cited from earlier work
[16] = tested on: human α3β2γ2 GABAA receptors; design: method as in Sanna et al 2002; settings: GABA-evoked Cl- currents, means ±SE, ref Sanna et al 2002; cited from earlier work
[17] = tested on: human α1β2γ2 GABAA receptors; design: method as in Sanna et al 2002; settings: GABA-evoked Cl- currents, means ±SE, ref Sanna et al 2002; cited from earlier work
[18] = biological target: human recombinant GABAA receptors containing β3, γ2 plus α2; design: method as in Atack et al 1999; settings: (c) human recombinant β3γ2 plus α2; [3H]Ro 15-1788; ref Atack et al 1999; read-out: Affinity in vitro at BZ binding site (Ki) α2; cited from earlier work
[19] = biological target: human recombinant GABAA receptors containing β3, γ2 plus α5; design: method as in Atack et al 1999; settings: (c) human recombinant β3γ2 plus α5; [3H]Ro 15-1788; ref Atack et al 1999; read-out: Affinity in vitro at BZ binding site (Ki) α5; cited from earlier work
[20] = biological target: human recombinant GABAA receptors containing β3, γ2 plus α3; design: method as in Atack et al 1999; settings: (c) human recombinant β3γ2 plus α3; [3H]Ro 15-1788; ref Atack et al 1999; read-out: Affinity in vitro at BZ binding site (Ki) α3; cited from earlier work
[21] = biological target: human recombinant GABAA receptors containing β3, γ2 plus α1; design: method as in Atack et al 1999; settings: (c) human recombinant β3γ2 plus α1; [3H]Ro 15-1788; ref Atack et al 1999; read-out: Affinity in vitro at BZ binding site (Ki) α1; cited from earlier work

Molecule	Ki [1]	Ki (GABAA receptor α2)	Ki (GABAA receptor α3)	Ki [4]	Relative efficacy (%CDP) α2 [5]	Relative efficacy (%CDP) α1 [6]	Ki [7]	maximum tolerated dose (MTD) [8]	Ki [9]	Ki [10]	Relative efficacy (%CDP) α5 [11]	Relative efficacy (%CDP) α3 [12]	further results
Cc1nnc2n1-c1ccc(Cl)cc1C(c1ccccc1)=NC2 [Alprazolam]	5 nM												Receptor occupancy (RO) (GABAA receptor [2]; 2mg/day, sedation, ref Fujita et al 1999): RO:16% (2mg/day, sedation) /Fujita et al 1999 Affinity: Dubinsky et al 2002
CN1C(=O)CN=C(c2ccccc2)c2cc(Cl)ccc21 [Diazepam]	12.6 nM	16.9 nM	17 nM										Ki (GABAA receptor α5): 14.9 nM; Receptor occupancy (RO) (GABAA receptor [2]; at 30mg, sedation, ref Pauli et al 1992): RO:24%, at 30mg, sedation/ Pauli et al 1992 Affinity: c) Atack et al 1999, d) Sieghart 1995;
CCOC(=O)c1ncn2c1CN(C)C(=O)c1cc(F)ccc1-2 [Flumazenil]													Ki (GABAA α4 and α6 subunits): ~150 nM; Ki [3]: ~1 nM
O=C1Nc2ccc(Cl)cc2C(c2ccccc2Cl)=NC1O (centres unmarked) [Lorazepam]	8.6 nM												Receptor occupancy (RO) (GABAA receptor [2]; 2 mg, ref Lindfors-Hughes et al 2005, Atack et al 2010b): RO: ≤10% (2 mg) / Lindfors-Hughes et al 2005, Atack et al 2010b Affinity: Dubinsky et al 2002
CCn1ncnc1COc1nn2c(-c3ccccc3F)nnc2cc1C(C)(C)C [TPA-023, 7-(1,1-dimethylethyl)-6-(2-ethyl-2H-1,2,4-triazol-3-ylmethoxy)-3-(2-fluorophenyl)-1,2,4-triazolo[4,3-b]pyridazine]				0.31 nM	11%	0%	0.19 nM	2 mg	0.27 nM	0.41 nM	5%	21%	Relative efficacy (%DZ) α5 (GABAA α5β3γ2): 6±4%; Relative efficacy (%DZ) α2 (GABAA α2β3γ2): 15±2%; Relative efficacy (%DZ) α1 (GABAA α1β2γ2): 5±3%; Relative efficacy (%DZ) α3 (GABAA α3β3γ2): 17±1%; comment on intrinsic activity at α1 [6]: Christian et al 2015 Atack et al 2010 /antagonist at α1; Receptor occupancy (GABAA receptor [2]; at 2mg, MTD): 35-65%; receptor occupancy with lack of overt sedation (GABAA receptor [2]; ref Atack et al. 2010, 2011a,b): up to 50%
CC(C)(O)c1cnn2c(-c3ccc(F)c(-c4c(F)cccc4C#N)c3)cnc2n1 [TPA-023B]				2 ± 0.4 nM	38±4%	3±1%	1.8 ± 0.4 nM	2 mg	0.73 ± 0.21 nM	1.1 ± 0.2 nM	37±4%	50±2%	Receptor occupancy (GABAA receptor [2]; at 1.5 mg): 53%
Cc1nnc2n1-c1ccc(Cl)cc1C(c1ccccc1Cl)=NC2 [Triazolam]		1.2 ± 0.2 nM	3 ± 0.7 nM										Relative efficacy (%) α2, maximal percentage potentiation [13]: 255±11%; Ki (GABAA receptor α5): 1.2 ± 0.3 nM; Receptor occupancy (RO) (GABAA receptor [14]): In NHP: 5-100% RO corresponds to 4-500 µg/kg/ Bottlaender et al 1994 Affinity: Sieghart 1995; Relative efficacy (%) α5, maximal percentage potentiation [15]: 165±8%; Ki (GABAA receptor α1): 1.8 ± 0.4 nM; Relative efficacy (%) α3, maximal percentage potentiation [16]: 270±13%; Relative efficacy (%) α1, maximal percentage potentiation [17]: 132±6%
Cc1ccc(-c2nc3ccc(C)cn3c2CC(=O)N(C)C)cc1 [Zolpidem]		291 nM	357 nM										Ki [18]: 160 nM; Relative efficacy (%) α2, maximal percentage potentiation [13]: 198±20%; Ki [19]: > 10000 nM; Receptor occupancy (RO) (GABAA receptor [2]; 20mg, drowsiness, ref Abadie et al 1996): 21%; Receptor occupancy (RO) (GABAA receptor [2]; at 10mg therapeutic dose, ref Abadie et al 1996): 15%; Relative efficacy (%) α5, maximal percentage potentiation [15]: 15±5%; Ki (GABAA receptor α1): 17 nM; Relative efficacy (%) α3, maximal percentage potentiation [16]: 217±34%; Ki [20]: 380 nM; Relative efficacy (%) α1, maximal percentage potentiation [17]: 100±5%; Ki [21]: 27 nM
MRK-409				0.4 ± 0.07 nM	23%	18%	0.21 ± 0.03 nM	1 mg	0.22 ± 0.02 nM	0.23 ± 0.04 nM	18%	45%	comment on intrinsic activity at α1 [6]: Atack et al 2010/weak partial agonist at α1; Receptor occupancy (GABAA receptor [2]; at 1mg, MTD): < 10%; receptor occupancy at severe sedation (GABAA receptor [2]; ref Atack et al. 2010, 2011a,b): < 10%
